#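 Where inhibition never reached the appropriate level, the endpoint shown equals the highest concentration tested. Otherwise, values were interpolated linearly from a five-concentration, 48-hour dose response in 96-well plates. TGI: concentration producing complete growth inhibition.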
# How the values were obtained:
# Test in all cases: DTP human tumour cell line panel, 48 h
# SW-620 colon = test system: SW-620 colon
# A498 renal = test system: A498 renal
# OVCAR-8 ovarian = test system: OVCAR-8 ovarian
# SK-OV-3 ovarian = test system: SK-OV-3 ovarian
# HOP-62 NSCLC = test system: HOP-62 NSCLC
# U251 CNS = test system: U251 CNS
# HCC-2998 colon = test system: HCC-2998 colon
# PC-3 prostate = test system: PC-3 prostate
# NCI/ADR-RES ovarian = test system: NCI/ADR-RES ovarian
# HOP-92 NSCLC = test system: HOP-92 NSCLC
# MCF7 breast = test system: MCF7 breast
# DU-145 prostate = test system: DU-145 prostate
SMILES,TGI (SW-620 colon) [µM],TGI (A498 renal) [µM],TGI (OVCAR-8 ovarian) [µM],TGI (SK-OV-3 ovarian) [µM],TGI (HOP-62 NSCLC) [µM],TGI (U251 CNS) [µM],TGI (HCC-2998 colon) [µM],TGI (PC-3 prostate) [µM],TGI (NCI/ADR-RES ovarian) [µM],TGI (HOP-92 NSCLC) [µM],TGI (MCF7 breast) [µM],TGI (DU-145 prostate) [µM]
O=C1CCCN(c2ccccc2)N1,> 100,> 100,> 100,> 100,> 100,> 100,> 100,,,,,
O=C(Cc1nc2ccc(C(=O)c3ccccc3)cc2[nH]c1=O)C(=O)Nc1ccc(Br)cc1,> 100,> 100,> 100,> 100,> 100,> 100,,> 100,> 100,> 100,> 100,
Cc1cc2c(c(C(=O)NCCC(=O)O)c1)Oc1c(cc(C)cc1C(=O)NCCC(=O)O)S2,> 100,,> 100,> 100,> 100,> 100,> 100,> 100,> 100,> 100,> 100,> 100
Oc1ccccc1C(c1cc2c(cc1O)OCO2)N1CCOCC1 (stereo unspecified),70.8,42.2,44.7,> 100,> 100,30.2,33.9,31.6,,34.1,38.3,> 100
CCOC(=O)C1=C(C)N(c2ccccc2)C2=C(C(=O)N(c3ccccc3)C2c2ccccc2)C1c1ccccc1 (stereo unspecified),> 100,,> 100,> 100,> 100,> 100,> 100,,,> 100,,
COc1ccc(/C(=C/n2ccnc2)C(=O)c2ccc(OC)c(OC)c2)cc1,> 100,> 100,> 100,,> 100,> 100,> 100,,,> 100,,
CC(C)C(Sc1nc(-c2ccccc2)c(-c2ccccc2)[nH]1)C(=O)NNC(=S)Nc1ccccc1 (stereo unspecified),33.1,44.5,> 100,45.3,39.8,30,17.6,,,34.3,,
Cc1ccc2c(c1)nc(N)n[n+]2[O-],> 100,> 100,> 100,> 100,> 100,> 100,,> 100,> 100,,> 100,> 100
C=CCN(CC=C)Cn1c(=S)sc2ccccc21,> 100,,> 100,> 100,> 100,> 100,> 100,> 100,> 100,> 100,> 100,> 100
Cc1c(/C=N\NC(=S)N2CCN(C(=S)N/N=C\c3c(C)n(C)n(-c4ccccc4)c3=O)CC2)c(=O)n(-c2ccccc2)n1C,> 100,> 100,,> 100,> 100,> 100,> 100,> 100,> 100,> 100,,> 100
O=C1NC(c2ccc(O)cc2)C2CCC1C2 (stereo unspecified),> 100,> 100,> 100,> 100,> 100,> 100,> 100,,,> 100,,
CCOC(=O)c1cc(=C2\CCN(CC(C)CC)C2=S)/c(=C(/O)CC)[nH]1 (stereo unspecified),25.9,29,56.6,48.4,,26.5,,38.8,75.3,39.6,61,30.2
CC(C)CC(N)C(=O)OCN1C(=O)C2C3C=CC(C2C1=O)C1C2C(=O)N(COC(=O)C(N)CC(C)C)C(=O)C2C31 (stereo unspecified),> 75.6,> 100,> 100,> 100,> 100,> 100,> 100,,,> 100,,
CCN(CC)CCn1c2cc3c(cc2c(=O)c2cccnc21)OCCO3,> 10,,> 10,> 10,> 10,> 10,> 10,> 10,> 10,> 10,> 10,> 10
Cc1c(Cl)cccc1NC(=O)C(=O)C1C(=O)CC(C)(C)CC1=O,> 100,> 100,> 100,> 100,> 100,> 100,> 100,,,> 100,,
COC1(C)CC2N(C(=O)c3ccccc3)N=C(c3ccccc3)CC2(C)O1 (stereo unspecified),> 100,> 100,> 100,> 100,> 100,,> 100,,,> 100,,
COc1ccc(C2C(Cl)C(=O)N2NC(=O)c2ccc(NC(C)=O)cc2)cc1 (stereo unspecified),> 100,> 100,> 100,> 100,> 100,> 100,,,,> 100,,
Cc1cn(C2C=CC(COP(=O)(OCC3=CC(=O)c4ccccc4C3=O)N(C)CCCCCl)O2)c(=O)[nH]c1=O (stereo unspecified),29.3,,26.6,23,23.9,17.7,4.42,24.5,36.2,20.9,20.5,3.06
O=C1CC2(C[C@@H]3CCCCCCCCC[C@@H](C3)C2)N1 (stereo partly specified),33.8,30.9,33.5,28.4,32.8,30.3,31.9,,,23,,
CCOC(=O)c1c(NC(=O)c2ccccc2)sc2c1CCCC2,> 100,> 100,> 100,> 100,,> 100,,> 100,> 100,,> 100,> 100
O=C1CC2C=CC(O)C(C1)C2 (stereo unspecified),> 100,> 100,> 100,> 100,> 100,> 100,> 100,> 100,> 100,,> 100,> 100
Cc1cc(-c2nc3ccccc3s2)ccc1NS(=O)(=O)O,> 100,> 100,> 100,> 100,> 100,> 100,> 100,> 100,> 100,> 100,,> 100

# From PubChem BioAssay (NCI)
